Measurements reported in PubChem BioAssay AID179 (DTP/NCI, 2004).
“And” between values parts separate entries of the source, which are not always exact repeats. Equal entries are not always repeated. The source made the active and inactive calls.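 Rule for the calls: active = compounds giving half or more protection of infected cells from virus-caused growth loss, again on retest; inactive = the rest.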 Where a SMILES comes first, the peptide text is derived from it.

Tested on: CEM cells HIV-1 protection, formazan growth assay
Experiment: NCI AIDS Antiviral Assay
Details: for IC50: measured here: growth of uninfected CEM cells
How it was run: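 Category rules: moderately active means at least 50% protection on retest, and confirmed active means 100% protection reproducibly. The underlying data came from a formazan growth assay in HIV-1-infected CEM cells.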

SMILES	EC50 [µM]	IC50	outcome
Cn1c(=O)c2nc(NCc3ccccc3)sc2n(C)c1=O	> 61.7	> 61.7 µM	–
CNCc1cc(OC)ccc1-c1ccc(OC)c(OC)c1OC	> 708	105 µM	–
CC(=O)/C(=C/n1ccc(=O)[nH]c1=S)C(=O)Nc1ccc([N+](=O)[O-])cc1	> 200	102 µM	–
O=C(NNC1=NCCCN1)c1ccco1	> 200	> 200 µM	–
CC(C)=NOC(=O)CNC(=O)C(Cc1ccccc1)NC(=O)C(C)NC(=O)OC(C)(C)C (configuration not stated)	> 200	> 200 µM	–
Cc1nc(Nc2ccccc2Cl)sc1C(=O)CC(=O)C(=O)Nc1c(Cl)cccc1Cl	> 200	57.5 µM	–
CCOC(=O)NC1C2CC(=O)C(O2)C1OCc1ccccc1 (configuration not stated)	> 309	295 µM	–
O=C=NCCCCCCN1C(=O)N2C(c3ccccc3)N(CCCCCCN=C=O)C(=O)N2C1c1ccccc1 (configuration not stated)	–	–	inactive
CSCCCNC(=O)c1csc(-c2csc(CCNC(=O)CNC(=O)OC(C)(C)C)n2)n1	> 501	234 µM	–
Cc1cc(-c2ccccc2)nc(Nc2nc3ccccc3o2)n1	> 61.7	> 61.7 µM	–
CN(C)C(=N)OCc1ccccc1	> 200	> 200 µM	–
CC1CC(=O)Nc2cc(Cl)ccc2N1C(=O)C1CC1 (configuration not stated)	> 200	> 200 µM	–
CC(C)(C)OC(=O)N1CCCC1C(=O)NC(c1ccccc1)c1ccccc1 (configuration not stated)	> 200	> 200 µM	–
O=P1(C(c2ccccc2)c2ccccc2)OC2CC(Cl)CC(C2)O1 (configuration not stated)	> 7.24	> 7.24 µM	–
CC(/C=N/N(C)C1=NCCCN1)=N/N(C)C1=NCCCN1	> 200	> 200 µM	–
CC1=N/C(=C\c2ccccc2F)C(=O)O1	> 631	> 631 µM	–
CCCCCCCCSC(=O)NCCCC	–	–	inactive
C=C(CCC(Cl)[C@@H]1COC(/C=C/C)O1)[Si](C)(C)C (some centres not stated)	> 123	> 123 µM	–
c1ccc(Cc2ccc(SSc3ccc(Cc4ccccc4)cc3)cc2)cc1	> 200	26.9 µM	–
Brc1ccc(N=NN2CCCC2)cc1	> 200	38.9 µM	–
CC1=C(O)/C(=C/C(C)CCC/C(C)=C/C=C/C(C)CCCc2ccoc2)OC1=O (configuration not stated)	–	–	inactive
CCOC(=O)C(=O)C1C(=O)Nc2ccccc21 (configuration not stated)	> 398	204 µM	–

SMILES	EC50 [µM]	IC50	outcome
CC(C)(CCCCC(C)(C)[N+](C)(C)C)[N+](C)(C)C	> 200	> 200 µM	–
COC(=O)C1=C(C(=O)OC)C23CC1C1C(C(=O)OC)=C(C(=O)OC)C12C1C=CC3C2C(=O)OC(=O)C21 (configuration not stated)	> 14.5	> 14.5 µM	–
O=C(CCc1ccc(O)cc1)c1c(O)cc(O)cc1OC1OC(CO)C(O)C(O)C1O (configuration not stated)	> 200	> 200 µM	–
Cn1c(=O)c(Cc2c(O)c3ccccc3n(C)c2=O)c(O)c2ccccc21	> 7.24	> 7.24 µM	–
CCCCOC(=O)C(=O)/C(=C\n1c(=S)[nH]c2ccccc21)C(=O)C=C(C)C	> 200	–	–
CCOc1ccc(Nc2nc3c(s2)C(=O)c2ccccc2C3=O)cc1	> 110	9.55 µM	–
COC(=O)C(CC(=O)c1cc2c(cc1I)OCO2)Cc1cc(OC)c(OC)c(OC)c1I (configuration not stated)	> 14.8	> 14.8 µM	–
Clc1ccc(-c2cc[s+]s2)cc1	> 200	33.1 µM	–
CN(/N=C(\C(=O)O)c1ccccc1)C1=NCCCCN1	> 200	> 100 µM	–
C/C(CN1C(=O)c2ccccc2C1=O)=N\NS(C)(=O)=O	> 851	589 µM	–
CC1=NNC(=O)C1C1CC(c2c[nH]c3ccccc23)=NNC1=O (configuration not stated)	> 200	155 µM	–
N=C(/C=C/c1ccc(-c2cn3cc(/C=C/C(=N)N4CCOCC4)ccc3n2)cc1)N1CCOCC1	162	186 µM	–
CC(C)[C@@H]1OC(=O)[C@@H](C)NC(=O)[C@@H]2CCCN2C1=O (HELM PEPTIDE1{[CC(C)[C@H](O[*:1])C(=O)[*:2]].P.[dA]}$PEPTIDE1,PEPTIDE1,1:R1-3:R2$$$V2.0)	> 200	> 200 µM	–
CC(=O)c1ccc(NC(=O)C(=O)C(C(=O)/C=C/c2ccccc2)C2OC(=O)c3ccccc32)cc1 (configuration not stated)	> 282	148 µM	–
Cc1ccc(C2NC(=O)N3C(c4ccc(C)cc4)NC(=O)N23)cc1 (configuration not stated)	> 200	30.2 µM	–
CC(=O)OCC1OC(n2c(C)c(C(C)=O)c(-c3cccc4ccccc34)c(C#N)c2=S)C(OC(C)=O)C(OC(C)=O)C1OC(C)=O (configuration not stated)	> 200	112 µM	–
COc1cc(/C=C/c2sc3ccccc3[n+]2C)ccc1N(C)C	> 200	3.24 µM	–
C=C1C2CC[C@@H]3C(C2)(C(=O)C(O)[C@@H]2C(C)(C)[C@@H]4CC(=O)C32CO4)C1OC(C)=O (some centres not stated)	> 646	8.13 µM	–
COc1cccc2c1C(=O)C1(O)CCCCC21 (configuration not stated)	44.7	> 200 µM	–
NC(=S)N/N=C1\CCCCc2ccccc21	–	–	inactive
O=C(NCc1ccccc1)c1cc2cc(O)c(O)cc2cn1	> 200	5.13 µM and > 8.32 µM	–
Cc1ccc2oc(=O)ccc2c1	> 427	174 µM	–

SMILES	EC50 [µM]	IC50	outcome
CN(C)c1ccc(C(c2cc3c(cc2O)OCO3)N2CCOCC2)cc1 (configuration not stated)	> 72.4	12.9 µM	–
O=C(NC1C(=O)NC(CCc2ccccc2)NC1=O)OCc1ccccc1 (configuration not stated)	> 200	> 200 µM	–
O=C(COc1ccc(Cl)cc1)N1N=C(c2ccc([N+](=O)[O-])o2)CC1(O)c1ccccc1 (configuration not stated)	> 16.2	2.88 µM	–
COc1ccc(C(c2ccc3cccnc3c2O)c2ccc3cccnc3c2O)cc1	–	–	inactive
O=C(Cn1c2ccc(Br)cc2c2nc3ccccc3nc21)NCc1ccccc1	> 100	> 100 µM	–
COc1cccc(NC(=O)CC(=O)N2N=C(C)C(N=Nc3ccc(C(=O)O)cc3)C2=O)c1 (configuration not stated)	> 200	63.1 µM	–
CCOC(=O)c1oc2cc3c(c4c2c1-c1ccccc1N4C)C=CC(C)(C)O3	> 200	120 µM	–
CC(C)(C)C1CCC(N=C(N)CSS(=O)(=O)O)CC1 (configuration not stated)	> 200	24 µM	–
O=C1OCC=C1COC1OC(CO)C(O)C(O)C1O (configuration not stated)	> 200	77.6 µM	–
C[C@@H](NC(=O)CNC(=O)OC(C)(C)C)C(=O)N[C@@H](Cc1ccccc1)C(=O)OCc1ccccc1 (HELM PEPTIDE1{[CC(C)(C)OC(=O)[*:2]].G.[dA].F.[c1ccc(CO[*:1])cc1]}$$$$V2.0)	> 200	97.7 µM	–
CCOC(=O)/C(=C\n1c(=S)[nH]c2cc(C)ccc21)C(=O)c1ccccc1	> 100	> 100 µM	–
C=C1CC2C[C@H](OS(=O)(=O)c3ccc(C)cc3)C(C1)N2C (some centres not stated)	> 200	> 200 µM	–
CC(C)(C)OC(=O)C1=C2C=C(O)C=CC2(C)N(Cc2ccccc2)C1=N (configuration not stated)	> 2	0.741 µM	–
Cc1c(C#N)c(=N)oc2ccccc12	> 200	115 µM	–
c1ccc2c(c1)Sc1ccccc1S2	> 200	> 200 µM	–
COC(=O)c1ccc(OCc2ccc3nc(-c4ccccc4)c(Cl)nc3c2)cc1	> 200	> 200 µM	–
COc1ccc2cc1Oc1ccc(cc1)C[C@H]1c3cc(c(OC)cc3CCN1C)Oc1c(OC)c(OC)cc3c1[C@H](C2)N(C)CC3	> 21.9	12.3 µM	inactive
Nc1nc(N)c(N=O)c(Nc2cccc(Br)c2)n1	> 200	8.51 µM	–
Cc1c(Cl)cccc1NC(=O)C(=O)C(C(=O)c1ccccc1-c1ccccc1)C1OC(=O)c2ccccc21 (configuration not stated)	> 69.2	26.3 µM	–
COC12C=CC(CC1)C(C)(C)C2=O (configuration not stated)	> 200	> 200 µM	–
C(=Nc1ccc(SSc2ccc(N=Cc3ccc4c(c3)OCO4)cc2)cc1)c1ccc2c(c1)OCO2	> 200	23.4 µM	–
C[C@]1(O)CC(=O)c2c(c(-c3ccc4cc5c(c(O)c4c3O)C(=O)C[C@@](C)(O)C5)c3cccc(O)c3c2O)C1	> 200	1.32 µM	–

SMILES	EC50 [µM]	IC50	outcome
CC(C)NC1CCCCC2c3ccccc3C12O (configuration not stated)	145	> 200 µM	–
COc1ccc(/C=C2/C(=O)N=C(NC(C)=O)N2C)cc1OC	> 200	> 200 µM	–
C=C(C)CC(C)(c1cc2ccccc2n1C)N1CCOCC1 (configuration not stated)	> 100	64.6 µM	–
COc1ccc(C(O)CC(O)(C(F)(F)F)C(F)(F)F)cc1 (configuration not stated)	> 200	> 100 µM	–
[O-][n+]1ccccc1SSc1cccc[n+]1[O-]	> 2	0.141 µM	–
[N-]=[N+]=Nc1cccc(-c2n[nH]c(Cl)cc2=O)c1	> 200	> 200 µM	–
CC(C)OC(=O)c1ccc(CCC2=CC(=O)C=CC2=O)cc1	> 200	8.32 µM	–
Cc1cn(CCCCCCOC(=O)NC(CCCNC(N)=O)C(=O)O)c(=O)[nH]c1=O (configuration not stated)	> 200	> 200 µM	–
Cc1c(O)c2ccccc2c2c1sc(NCCO)[n+]2C	> 79.4	40.7 µM	–
N#Cc1ccc(CSc2ncnc3nc[nH]c23)cc1	> 200	81.3 µM	–
CCOC(=O)C(NS(=O)(=O)c1ccccc1)(C(F)(F)F)P(=O)(OCC(C)C)OCC(C)C (configuration not stated)	> 200	64.6 µM	–
Cn1c(=O)c2[nH]cnc2n(CC(N)=O)c1=O	> 562	> 562 µM	–
CCCCCCCC/C=C\CCCCCCCC(=O)NCCN(CCN)C(=O)CCCCCCC/C=C\CCCCCCCC	> 25.1	> 25.1 µM	–
OC1c2ccccc2-c2nc3cccccc-3c21 (configuration not stated)	> 155	24 µM	–
OC(CC(O)(C(F)(F)F)C(F)(F)F)c1ccc(C(O)CC(O)(C(F)(F)F)C(F)(F)F)cc1 (configuration not stated)	> 200	10.2 µM	–
CC(=O)c1sc2c(c1OC(=O)c1ccc(Cl)cc1)c(=O)n(-c1ccccc1)c(=S)n2-c1ccccc1	> 200	0.776 µM	–
O=C1CC2C=CC(O)C(C1)C2 (configuration not stated)	> 200	> 200 µM	–
COc1ccc2c(c1)O[C@@H]1c3ccc(OC)cc3OC[C@H]21	–	–	inactive
CC1(C)CCCC(C)(C2CCC3(C)C2C(O)CC2C4(C)CCC(O)C(C)(C)C4C(O)CC23C)O1 (configuration not stated)	–	–	inactive
COC(=O)/C=C/C(=O)/C=C/COC(=O)c1ccccc1	> 95.5	61.7 µM	–
CN(C)Cc1cc(C(=O)/C=C/c2ccc(Cl)cc2)cc(CN(C)C)c1O	> 200	9.12 µM	–
